For test [1], the target named is T1, Tubulin alpha chain (Sus scrofa, UniProt P02550).
In test [2] the target is T1, Tubulin alpha chain. Description: Inhibition of tubulin polymerization interacting at the colchicine binding site.

Usually IC50 stands for the concentration that gives 50% inhibition. A lower IC50 goes with inhibition by little substance.

T1 sequence (P02550 whole entry, looked up): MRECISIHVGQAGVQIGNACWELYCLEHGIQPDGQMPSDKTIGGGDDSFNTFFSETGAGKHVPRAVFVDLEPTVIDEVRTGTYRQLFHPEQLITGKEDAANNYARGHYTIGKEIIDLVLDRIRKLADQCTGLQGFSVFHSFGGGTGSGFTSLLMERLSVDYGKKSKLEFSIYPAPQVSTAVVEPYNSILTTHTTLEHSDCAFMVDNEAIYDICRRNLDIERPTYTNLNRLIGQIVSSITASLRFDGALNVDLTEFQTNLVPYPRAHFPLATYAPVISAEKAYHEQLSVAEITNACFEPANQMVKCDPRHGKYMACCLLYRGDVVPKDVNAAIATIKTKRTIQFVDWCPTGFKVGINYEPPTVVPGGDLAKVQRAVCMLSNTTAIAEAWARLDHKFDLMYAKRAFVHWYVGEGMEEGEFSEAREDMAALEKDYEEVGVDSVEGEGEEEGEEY

Compound `Oc1cc(-c2cccs2)nc2cc3c(cc12)OCO3` had an IC50 on Tubulin alpha chain [1] of 2190 nM.

`COc1cccc([C@H]2CC(=O)c3cc4c(cc3N2)OCO4)c1` had a half-maximal inhibitory concentration (IC50) against Tubulin alpha chain [1] of 2340 nM.

In the case of `COc1cccc([C@@H]2CC(=O)c3cc4c(cc3N2)OCO4)c1`, on Tubulin alpha chain [1], the IC50 is 692 nM.

Consider `COc1cccc(-c2cc(O)c3ccccc3n2)c1`, for which, at Tubulin alpha chain [1], 1410 nM corresponded to half-maximal inhibition (IC50).

In turn, `COc1cccc(-c2cc(O)c3cccnc3n2)c1` gave an IC50 against Tubulin alpha chain [1] of 955 nM. Same read-out and setting: in the case of `COc1cc2c(c(OC)c1O)-c1ccc(SC)c(=O)cc1[C@@H](NC(C)=O)CC2` it was 1510 nM; in that of `COc1cccc(-c2cc(O)c3cc4c(cc3n2)OCO4)c1`, 575 nM. For `COc1cc2c(c(OC)c1OC)-c1ccc(SC)c(=O)cc1[C@@H](NCc1ccc([N+](=O)[O-])cc1)CC2`, the IC50 against Tubulin alpha chain [1] was 2290 nM.

With `COc1ccc(CN[C@H]2CCc3cc(OC)c(OC)c(OC)c3-c3ccc(SC)c(=O)cc32)c(OC)c1OC`, 2290 nM corresponded to half-maximal inhibition against Tubulin alpha chain [1] (IC50).

`COc1cc2c(c(OC)c1OC)-c1ccc(SC)c(=O)cc1[C@@H](COC(=O)c1ccccc1F)C2` had an IC50 against Tubulin alpha chain [1] of 3630 nM. The same measure, in the same setting: with `COc1cc2c(c(OC)c1OC)-c1ccc(SC)c(=O)cc1[C@@H](OC(=O)C13CCC(C)(C(=O)O1)C3(C)C)CC2` (some centres not stated) the figure was 1410 nM; with `COc1cccc(-c2cc(O)c3ccc(C)nc3n2)c1`, 759 nM; with `Cc1cc(C)c2c(O)cc(-c3cccc(F)c3)nc2n1`, 741 nM. Same read-out and setting: with `COc1c(O)cc2c(c1OC)-c1ccc(SC)c(=O)cc1[C@@H](NC(=O)CC(C)=O)CC2` the figure was 1700 nM. On the same count and under the same terms, with `COc1cc2c(c(OC)c1OC)-c1ccc(SC)cc1[C@@H](O)C=C2` the figure was 1820 nM; with `Cc1ccc2c(O)cc(-c3sccc3C)nc2n1`, 2820 nM; with `Oc1cc(-c2ccc3ccccc3c2)nc2ncccc12`, 14100 nM. Consider `COc1cccc(-c2cc(O)c3cc(C)cnc3n2)c1`, for which 794 nM corresponded to half-maximal inhibition against Tubulin alpha chain [1] (IC50).

For the compound `COc1ccccc1-c1cc(O)c2cc(C)cnc2n1`, at Tubulin alpha chain [1], half-maximal inhibition (IC50) required 18200 nM. Compound `Oc1cccc(-c2cc(O)c3cc4c(cc3n2)OCO4)c1` showed an IC50 against Tubulin alpha chain [1] of 468 nM.

Consider `COc1cc2c(c(OC)c1OC)-c1ccc(SC)c(=O)cc1[C@@H](NC(=O)CC(C)=O)CC2`, for which the IC50 at Tubulin alpha chain [1] was 1410 nM. The same measure, in the same setting: in the case of `COc1cc2c(c(OC)c1OC)-c1ccc(SC)cc1[C@H](OC(=O)c1cccnc1)CC2` it was 2400 nM; in that of `Nc1cccc(-c2cc(O)c3cc4c(cc3n2)OCO4)c1`, 724 nM. Same read-out and setting: in the case of `CCCC(=O)O[C@H]1CCc2cc(OC)c(OC)c(OC)c2-c2ccc(SC)cc21` it was 2820 nM; in that of `Cc1cccc(-c2cc(O)c3cccnc3n2)c1`, 3310 nM. `CCCC(=O)O[C@@H]1CCc2cc(OC)c(OC)c(OC)c2-c2ccc(SC)cc21` showed an IC50 against Tubulin alpha chain [1] of 4790 nM. On the same count and under the same terms, with `COc1ccc2c(c1)CCCc1cc(OC)c(OC)c(OC)c1-2` the figure was 1910 nM; with `COc1ccc2c(c1)C=CCc1cc(OC)c(OC)c(OC)c1-2`, 2190 nM.

On Tubulin alpha chain [1], `COc1cc2c(c(OC)c1OC)-c1ccc(SC)c(=O)cc1[C@@H](NC(=O)C13CCC(C)(C(=O)O1)C3(C)C)CC2` (some centres not stated) had an IC50 of 2400 nM. Same read-out and setting: with `COc1cc2c(c(OC)c1OC)-c1ccc(SC)cc1[C@@H](OC(=O)c1cccnc1)CC2` the figure was 4790 nM; with `COc1cccc(-c2cc(O)c3cc(N(C)C)ccc3n2)c1`, 380 nM; with `COc1cc2c(c(OC)c1OC)-c1ccc(SC)c(=O)cc1[C@@H](NCc1ccc(F)cc1)CC2`, 3240 nM. In the case of `Cc1ccc2c(O)cc(-c3cc(C)sc3C)nc2n1`, at Tubulin alpha chain [1], the IC50 is 4790 nM. On the same count and under the same terms, with `COc1cc2c(c(OC)c1OC)-c1ccc(SC)c(=O)cc1[C@@H](NCc1ccc(C#N)cc1)CC2` the figure was 2510 nM. Same read-out and setting: in the case of `Oc1cc(-c2cccc3ccccc23)nc2ncccc12` it was 1100 nM.

Regarding `COc1cc2c(c(OC)c1OC)-c1ccc(SC)c(=O)cc1[C@@H](COC(=O)c1cccc(F)c1)C2`, at Tubulin alpha chain [1], the IC50 is 3390 nM. Regarding `Cc1cccc(-c2cc(O)c3ccc(C)nc3n2)c1`, the IC50 against Tubulin alpha chain [1] is 1910 nM. The same measure, in the same setting: in the case of `Oc1cc(-c2cccc(Cl)c2)nc2ncccc12` it was 1510 nM; in that of `COc1cccc(-c2cc(O)c3c(Cl)ccnc3n2)c1`, 724 nM; in that of `Cc1ccc2c(O)cc(-c3ccsc3)nc2n1`, 7940 nM.

Turning to `Cc1cnc2nc(-c3cccc(F)c3)cc(O)c2c1`, the IC50 at Tubulin alpha chain [2] was 631 nM. Regarding `Cc1ccnc2nc(-c3ccc4ccccc4c3)cc(O)c12`, on Tubulin alpha chain [1], the IC50 is 1820 nM. Same read-out and setting: in the case of `COc1c(O)cc2c(c1OC)-c1ccc(SC)c(=O)cc1[C@@H](NC(C)=O)CC2C=O` (some centres not stated) it was 2820 nM. Still for that read-out and setting: in the case of `COc1ccc2c(c1)CC=Cc1cc(OC)c(OC)c(OC)c1-2` it was 1510 nM; in that of `COc1cccc(-c2cc(O)c3c(C)cc(C)nc3n2)c1`, 871 nM; in that of `Cc1ccnc2nc(-c3ccc(F)cc3)cc(O)c12`, 18200 nM. The same measure, in the same setting: in the case of `COc1cc2c(c(OC)c1OC)-c1ccc(SC)cc1[C@@H](OC(C)=O)CC2` it was 2820 nM; in that of `Oc1cc(-c2ccc3ccccc3c2)nc2ncc(Cl)cc12`, 2510 nM. `COc1cc2c(c(OC)c1OC)-c1ccc(SC)cc1[C@H](OC(C)=O)CC2` showed an IC50 at Tubulin alpha chain [1] of 3090 nM. Still for that read-out and setting: with `Cc1ccc2c(O)cc(-c3cccs3)nc2n1` the figure was 6030 nM; with `COc1cccc(-c2cc(O)c3c(Br)ccnc3n2)c1`, 1510 nM.

The compound `Cc1ccc2c(O)cc(-c3ccc4ccccc4c3)nc2n1` had an IC50 against Tubulin alpha chain [1] of 5130 nM. `Oc1cc(-c2cccc(F)c2)nc2cc3c(cc12)OCO3` gave an IC50 against Tubulin alpha chain [1] of 525 nM. On the same count and under the same terms, in the case of `Cc1ccc2c(O)cc(-c3ccc(Cl)cc3)nc2n1` it was 11000 nM; in that of `Cc1cccc(-c2cc(O)c3cc(C)cnc3n2)c1`, 1510 nM; in that of `Cc1cnc2nc(-c3ccc(Cl)cc3)cc(O)c2c1`, 2000 nM. Still for that read-out and setting: with `Cc1ccc(-c2cc(O)c3c(C)ccnc3n2)cc1` the figure was 2880 nM. The same measure, in the same setting: with `Cc1ccc(-c2cc(O)c3c(C)cc(C)nc3n2)cc1` the figure was 10000 nM; with `Cc1ccc(-c2cc(O)c3cc(C)cnc3n2)cc1`, 2400 nM; with `COc1ccc(-c2cc(O)c3cc(C)cnc3n2)cc1`, 7760 nM. In turn, `COc1ccc(-c2cc(O)c3c(C)ccnc3n2)cc1` showed an IC50 on Tubulin alpha chain [1] of 8710 nM.

At Tubulin alpha chain [1], `Cc1ccc(-c2cc(O)c3ccc(C)nc3n2)cc1` showed an IC50 of 4900 nM.

`Cc1cnc2nc(-c3sccc3C)cc(O)c2c1` gave an IC50 at Tubulin alpha chain [1] of 3800 nM. Still for that read-out and setting: with `COc1cc2c(c(OC)c1OC)-c1ccc(SC)c(=O)cc1[C@@H](OC(=O)c1cccnc1)CC2` the figure was 759 nM; with `CNc1cccc(-c2cc(O)c3cc4c(cc3n2)OCO4)c1`, 646 nM; with `Cc1ccc2c(O)cc(-c3ccc(Br)s3)nc2n1`, 1510 nM.

The compound `COc1cc2c(c(OC)c1O)-c1ccc(SC)c(=O)cc1[C@@H](NC(=O)CC(C)=O)CC2` gave an IC50 against Tubulin alpha chain [1] of 3310 nM. Compound `Cc1cnc2nc(-c3cccc(Cl)c3)cc(O)c2c1` had an IC50 against Tubulin alpha chain [1] of 724 nM. The compound `Cc1cc(C)c2c(O)cc(-c3cccc4ccccc34)nc2n1` gave an IC50 against Tubulin alpha chain [1] of 776 nM. In turn, `COc1cc2c(c(OC)c1OC)-c1ccc(SC)c(=O)cc1[C@@H](OC(=O)c1ccncc1)CC2` showed an IC50 against Tubulin alpha chain [1] of 562 nM.

`O=C(Oc1cccc(-c2cc(O)c3cc4c(cc3n2)OCO4)c1)c1ccccc1` showed an IC50 on Tubulin alpha chain [1] of 447 nM. In the case of `Oc1cc(-c2cccc(C(F)(F)F)c2)nc2cc3c(cc12)OCO3`, on Tubulin alpha chain [1], the midpoint of inhibition, the IC50, lay at 813 nM. Same read-out and setting: with `Cc1ccc2c(O)cc(-c3ccc(Cl)s3)nc2n1` the figure was 1700 nM; with `Cc1cnc2nc(-c3cccc4ccccc34)cc(O)c2c1`, 550 nM; with `Oc1cc(-c2cccc(Cl)c2)nc2cc3c(cc12)OCO3`, 372 nM.

`COc1cccc(-c2cc(O)c3cc(N4CCOCC4)ccc3n2)c1` had an IC50 on Tubulin alpha chain [1] of 363 nM. Still for that read-out and setting: in the case of `Cc1cnc2nc(-c3ccc4ccccc4c3)cc(O)c2c1` it was 2090 nM. For the compound `Cc1ccc2c(O)cc(-c3ccc(C)s3)nc2n1`, the midpoint of inhibition at Tubulin alpha chain [1], the IC50, lay at 1700 nM. On the same count and under the same terms, with `Cc1cnc2nc(-c3ccc(C)s3)cc(O)c2c1` the figure was 2690 nM; with `Cc1ccc2c(O)cc(-c3cccc(Cl)c3)nc2n1`, 891 nM. At Tubulin alpha chain [1], `Cc1cc(C)c2c(O)cc(-c3cccc(Cl)c3)nc2n1` gave an IC50 of 776 nM.

The compound `Oc1cc(-c2ccccc2F)nc2ccc(N3CCCC3)cc12` had an IC50 against Tubulin alpha chain [1] of 457 nM. Still for that read-out and setting: in the case of `Oc1cc(-c2ccc(F)cc2)nc2ncc(Cl)cc12` it was 15800 nM; in that of `COc1cc2c(c(OC)c1OC)-c1ccc(SC)c(=O)cc1[C@@H](COC(=O)c1ccc(F)cc1)C2`, 4470 nM. The compound `Cc1ccc2c(=O)cc(-c3cccc(F)c3)[nH]c2n1` had an IC50 against Tubulin alpha chain [1] of 525 nM. At Tubulin alpha chain [1], `Cc1ccnc2nc(-c3cccc4ccccc34)cc(O)c12` showed an IC50 of 933 nM.

`COc1cc2c(c(OC)c1OC)-c1ccc(SC)cc1[C@H](OC(=O)c1ccccc1)CC2` had an IC50 on Tubulin alpha chain [1] of 2690 nM.

`Cc1ccc2c(O)cc(-c3cccc4ccccc34)nc2n1` gave a concentration for half-maximal inhibition (IC50) at Tubulin alpha chain [1] of 661 nM. On Tubulin alpha chain [1], `COC(=O)c1ccc2c(c1)C(NC(C)=O)CCc1cc(OC)c(OC)c(OC)c1-2` (configuration not stated) showed an IC50 of 1410 nM. Same read-out and setting: in the case of `Cc1ccnc2nc(-c3ccc(Cl)cc3)cc(O)c12` it was 4790 nM; in that of `COc1ccc2c(c1)C(NC(C)=O)CCc1cc(OC)c(OC)c(OC)c1-2` (configuration not stated), 1510 nM; in that of `COc1cc2c(c(OC)c1OC)-c1ccc(SC)c(=O)cc1[C@@H](COC(=O)c1cccc(C#N)c1)C2`, 3020 nM.
